Results on three compounds are retold here after US10801068B2, “JAG1 expression predicts therapeutic response in NASH” (The Trustees of Columbia University in the City of New York, priority 2015, dated 2020).

Data set [1] deals with adult patients with biopsy-confirmed NASH. The conditions noted are these: cited from earlier work.
Data set [2] concerns adult, non-diabetic patients with NASH. The data set can be described thus: PIVENS trial (Pioglitazone versus Vitamin E versus Placebo), ancillary analysis of responders, NAS, ALT, HOMA-IR. Format: in vivo, human. How it is done: A pilot Ancillary Study to the Pioglitazone versus Vitamin E versus Placebo for the Treatment of nondiabetic Patients with Nonalcoholic Steatohepatitis (PIVENS) trial (Sanyal 2010), was conducted to ask whether hepatic Notch signaling tracks with disease pathology, and thus represent a novel biomarker of NAFLD/NASH.
PIVENS investigators randomized adult, non-diabetic patients with NASH to therapy with placebo, vitamin E (800 IU daily) or pioglitazone (30 mg daily), and had strict inclusion and exclusion criteria for trial entry, as well as a thorough clinical phenotyping of these patients (Sanyal 2011; Sanyal 2010). The PIVENS primary outcome was an improvement in NASH pathology, defined by improved hepatocellular ballooning without increase in fibrosis, and either a 2+ point decrease in NAS or to a score of ≤3 points.
Research-grade specimens were saved from subjects from the PIVENS trial for Ancillary Studies (Chalsani 2009). These samples were used to test the potential role of Notch signaling as either a biomarker or contributor to the NAFLD/NASH pathology.
(§1) A subset (Table 1, right), of PIVENS research subjects had paired baseline and 96 wk cDNA available for analysis.

The test system of the next data set is HES1. Description: PIVENS paired baseline and 96 wk liver cDNA, HES1 expression. Format: in vivo, human. The conditions noted are these: Vitamin E-treated responders, baseline vs 96 wk.
Description: as §1
(§2) Sample size calculations are based from PIVENS data as described in Example 9A, and exclude pioglitazone-treated patients to be conservative. Using data derived from paired samples in Vitamin E-treated responders (mean difference of 1.11±0.51 fg/ng 18S for HES1 and 2.27±0.71 fg/ng 18S for HEYL), we calculated using unpaired t-testing with type I error=0.05 and type II error=[…], that 12 before-and-after biopsies in FLINT are required to detect a statistically significant difference in OCA-responders for both HES1 and HEYL.

A further data set concerns HEYL. Description: PIVENS paired baseline and 96 wk liver cDNA, HEYL expression. Format: in vivo, human. The conditions noted are these: Vitamin E-treated responders, baseline vs 96 wk.
Description: as §1, §2

The test system of data set [3] is adult, non-diabetic patients with NASH. The conditions noted are these: final analysis; vitamin E 800 IU daily, pioglitazone 30 mg daily; cited from earlier work.
The mark [4] stands for this setting: Cross-sectional study, nonresponders (NR).
The mark [5] stands for this setting: Cross-sectional study, responders (R).
Setting [6] is: Cross-sectional study, number of subjects with NASH resolution or primary PIVENS outcome.
[7] abbreviates: Longitudinal study, nonresponders (NR).
[8] abbreviates: Longitudinal study, responders (R).
Setting [9] is: Longitudinal study, number of subjects.

Like-named read-outs stand apart in the source and are kept apart here.

As to `CC[C@H]1[C@@H](O)[C@@H]2[C@H](CC[C@]3(C)[C@@H]([C@H](C)CCC(=O)O)CC[C@@H]23)[C@@]2(C)CC[C@@H](O)C[C@@H]12` [OCA, obeticholic acid], the HOMA-IR result in data set [1] (change, p=0.01) was “+13 U”. In data set [1] (change, p=0.02), the insulin entry is “+29 pmol/L”. In data set [1] (in vivo), the HDL cholesterol result is recorded as “significant lowering” and the insulin resistance entry is on record as “increased insulin resistance”. The insulin resistance result in data set [1] (in vivo, listed as obeticholic acid) is “clearly induced insulin resistance”.

For the compound `CCc1ccc(CCOc2ccc(CC3SC(=O)NC3=O)cc2)nc1` (stereo not shown) [PIO, pioglitazone], the “Responders (%)” value was “(78%)” in data set [2] (Cross-sectional study) and “(75%)” in data set [2] (Longitudinal study). The ALT in data set [2] (setting [4]) is given as 46 U/L; in data set [2] (setting [5]), 34 ± U/L; in data set [2] (setting [7]) it was 56 U/L; in data set [2] (setting [8]), 41 U/L. Also, the HOMA-IR was 5.5 in data set [2] (setting [4]), 2.9 ± in data set [2] (setting [5]), 4.1 in data set [2] (setting [7]) and 3.3 in data set [2] (setting [8]). The NAS in data set [2] (setting [4]) was 4.8; in data set [2] (setting [5]), 2.2 ±; in data set [2] (setting [7]), 5.0; in data set [2] (setting [8]) it was 3.0. In addition, the Responders in data set [2] (setting [6]) was determined as 29; in data set [2] (setting [9]), 3.

Consider vitamin E [VitE], for which the “Responders (%)” value in data set [2] (Cross-sectional study) is “(61%)”; in data set [2] (Longitudinal study), “(60%)”. In addition, the ALT in data set [2] (setting [4]) was 55 U/L; in data set [2] (setting [5]) it was 33 U/L; in data set [2] (setting [7]), 58 U/L; in data set [2] (setting [8]), 45 U/L. In addition, the HOMA-IR in data set [2] (setting [4]) is 5.6; in data set [2] (setting [5]), 5.2; in data set [2] (setting [7]) it was 5.1; in data set [2] (setting [8]), 5.1. Further, the NAS in data set [2] (setting [4]) is given as 4.6; in data set [2] (setting [5]) it was 2.7 ±; in data set [2] (setting [7]), 3.9; in data set [2] (setting [8]), 2.6. Also, the Responders in data set [2] (setting [6]) is 25; in data set [2] (setting [9]), 6. In the data set with HES1, the “mean difference of HES1 in paired samples” value was found to be 1.11±0.51 fg/ng 18S. Also, the “mean difference of HEYL in paired samples” value with HEYL is reported as 2.27±0.71 fg/ng 18S. Moreover, in data set [3], the “PIVENS primary outcome (improvement in NASH pathology)” value is on record as “met the primary outcome”.
